Measured values as given in US7101878B1 (Agouron Pharmaceuticals, Inc., priority 1998, dated 2006).
Like-named read-outs stand apart in the source and are kept apart here.

Molecular target: T1, human GnRH receptor (Homo sapiens, UniProt P30968)
T1 construct: expressed in transfected cells; host or cells: HEK 293 (hGnRH-R/293, from Dr. Stuart Sealfon)
T1 sequence (P30968 1-328): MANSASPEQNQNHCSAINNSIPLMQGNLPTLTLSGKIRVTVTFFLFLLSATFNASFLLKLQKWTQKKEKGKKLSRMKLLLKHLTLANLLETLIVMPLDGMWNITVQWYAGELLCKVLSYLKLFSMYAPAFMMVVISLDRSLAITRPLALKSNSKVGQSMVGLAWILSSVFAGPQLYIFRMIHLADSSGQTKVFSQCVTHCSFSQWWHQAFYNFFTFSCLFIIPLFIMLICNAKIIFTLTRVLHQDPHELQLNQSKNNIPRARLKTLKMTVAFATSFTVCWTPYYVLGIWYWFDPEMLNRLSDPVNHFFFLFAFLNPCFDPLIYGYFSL
Assay: Radioligand binding, 125I-GnRH-A displacement, membranes of HEK 293 cells with human GnRH receptor
Experimental: All compounds were diluted in 1% DMSO (final assay concentration) in binding assay buffer. […] Reactions were terminated by rapid filtration onto 96-well Packard GF/C filters soaked in 0.1% polyethyleneimine. Filters were washed three times with PBS buffer, dried and counted on a Packard Topcount by liquid scintillation counting.
Assay conditions were identical for assessing compound activities at other species. […] IC50 values for control peptides and test compounds were calculated utilizing GraphPad Prism™ software.
Crude compounds were tested using the competitive radioligand binding assay described above.
The reaction mixture was vortexed and incubated for 1 min at room temperature. After one min, the mixture was vortexed and allowed to incubate for an additional minute. 2 ml of 0.5 M acetic acid/1% BSA was added to the reaction tube and the mixture was added to a C18 Sep-Pak cartridge. The cartridge was washed with subsequent washes of 5 ml H2O and 5 ml 0.5M acetic acid and then eluted with 5×1 ml of 60% CH3CN/40% 0.5M acetic acid. The eluate was diluted with 3× volume of HPLC buffer A (0.1% TFA in H2O) and loaded onto a C18 column. The iodinated product was eluted over 20-25 min with a gradient of 25-100% CH3CN containing 0.1% TFA. The radioactive fractions (750 ed/fraction) are collected into clean polypropylene tubes containing 100 μl of 10% BSA. Fractions were assessed for biological activity by radioligand binding.
S%R is the substrate remaining.

[1] = 1 uM, read-out: % Inhib. @ 1 uM hGnRH
[2] = 1 h, repeat of % Inhib. at 1 uM, read-out: Repeats @ 1 uM hGnRH

| inhibition at 1 µM [1] [%] | inhibition at 1 µM [2] [%] | Compound |
| --- | --- | --- |
| -25 | 3 | Cc1cc2c(cc1Cc1ccc(C(=O)N3CCN(c4cccc(C(F)(F)F)c4)CC3)o1)C(C)(C)CCC2(C)C |
| 15 | 16 | CCOC(=O)N1CCC(NC(=O)c2ccc(Cc3cc4c(cc3C)C(C)(C)CCC4(C)C)o2)CC1 |
| 19 | 29 | Cc1cc2c(cc1Cc1ccc(C(=O)NCCc3ccc(O)cc3)o1)C(C)(C)CCC2(C)C |
| 15 | 21 | Cc1cc2c(cc1Cc1ccc(C(=O)NCCc3cccc(Cl)c3)o1)C(C)(C)CCC2(C)C |
| -4 | -7 | Cc1cc2c(cc1Cc1ccc(C(=O)NCCN(C)C)o1)C(C)(C)CCC2(C)C |
| 40 | 41 | Cc1cc2c(cc1Cc1ccc(C(=O)NCc3ccc(C(F)(F)F)cc3)o1)C(C)(C)CCC2(C)C |
| -22 | 9 | Cc1cc2c(cc1Cc1ccc(C(=O)N3CCN(c4cccc(Cl)c4)CC3)o1)C(C)(C)CCC2(C)C |
| -20 | -7 | Cc1cc2c(cc1Cc1ccc(C(=O)N3CCN(c4ccc(Cl)c(Cl)c4)CC3)o1)C(C)(C)CCC2(C)C |
| -24 | 9 | Cc1cc2c(cc1Cc1ccc(C(=O)N3CCN(c4ccc(F)cc4)CC3)o1)C(C)(C)CCC2(C)C |
| -18 | 6 | Cc1cc2c(cc1Cc1ccc(C(=O)N3CCN(c4ccc([N+](=O)[O-])cc4)CC3)o1)C(C)(C)CCC2(C)C |
| 24 | 3 | Cc1cc2c(cc1Cc1ccc(C(=O)N3CCN(c4ccccc4F)CC3)o1)C(C)(C)CCC2(C)C |
| -6 | 0 | Cc1cc2c(cc1Cc1ccc(C(=O)NC3COC(C)(C)O[C@H]3c3ccccc3)o1)C(C)(C)CCC2(C)C (stereo partly shown) |
| 26 | 34 | Cc1cc2c(cc1Cc1ccc(C(=O)NCc3cc(Cl)ccc3Cl)o1)C(C)(C)CCC2(C)C |
| -40 | 17 | Cc1cc2c(cc1Cc1ccc(C(=O)NCCc3c(Cl)cccc3Cl)o1)C(C)(C)CCC2(C)C |
| -6 | 16 | Cc1cc2c(cc1Cc1ccc(C(=O)NCc3cccc(C(F)(F)F)c3)o1)C(C)(C)CCC2(C)C |
| -18 | 5 | Cc1cc2c(cc1Cc1ccc(C(=O)NCCSc3cc(C(F)(F)F)nc4ccccc34)o1)C(C)(C)CCC2(C)C |
| -10 | -15 | Cc1cc2c(cc1Cc1ccc(C(=O)NCc3c(Cl)cccc3Oc3ccccc3)o1)C(C)(C)CCC2(C)C |
| -11 | -29 | Cc1cc2c(cc1Cc1ccc(C(=O)NC3c4ccccc4CC3O)o1)C(C)(C)CCC2(C)C (stereo not shown) |
| -20 | -21 | Cc1cc2c(cc1Cc1ccc(C(=O)N3CCN(c4ccc(C(F)(F)F)cc4[N+](=O)[O-])CC3)o1)C(C)(C)CCC2(C)C |
| -16 | -29 | Cc1cc2c(cc1Cc1ccc(C(=O)N3CCN(c4ncccc4C(F)(F)F)CC3)o1)C(C)(C)CCC2(C)C |
| -4 | -7 | Cc1cc2c(cc1Cc1ccc(C(=O)N3CCN(c4ccc(C(F)(F)F)cn4)CC3)o1)C(C)(C)CCC2(C)C |
| -19 | -22 | Cc1cc2c(cc1Cc1ccc(C(=O)N3CCCCC3c3ccccc3)o1)C(C)(C)CCC2(C)C (stereo not shown) |
| -4 | 11 | Cc1cc2c(cc1Cc1ccc(C(=O)N3CCN(c4ccncc4)CC3)o1)C(C)(C)CCC2(C)C |
| 3 | 7 | Cc1cc2c(cc1Cc1ccc(C(=O)N3CCN(c4cnccn4)CC3)o1)C(C)(C)CCC2(C)C |

| inhibition at 1 µM [1] [%] | inhibition at 1 µM [2] [%] | Compound |
| --- | --- | --- |
| -15 | -20 | Cc1cc2c(cc1Cc1ccc(C(=O)N3CCN(c4ccccc4[N+](=O)[O-])CC3)o1)C(C)(C)CCC2(C)C |
| -5 | 62 | Cc1cc2c(cc1Cc1ccc(C(=O)N3CCN(c4ccccc4C#N)CC3)o1)C(C)(C)CCC2(C)C |
| -10 | -9 | Cc1cc2c(cc1Cc1ccc(C(=O)NC(C)c3ccc(O)cc3)o1)C(C)(C)CCC2(C)C (stereo not shown) |
| 11 | 16 | Cc1cc2c(cc1Cc1ccc(C(=O)NCc3ccc(F)c(C(F)(F)F)c3)o1)C(C)(C)CCC2(C)C |
| -12 | -6 | Cc1cc2c(cc1Cc1ccc(C(=O)N3CCN(c4ccc(O)cc4)CC3)o1)C(C)(C)CCC2(C)C |
| 15 | 19 | Cc1cc2c(cc1Cc1ccc(C(=O)NCc3ccc(Cl)c(C(F)(F)F)c3)o1)C(C)(C)CCC2(C)C |
| -11 | -5 | CCN(Cc1cc([N+](=O)[O-])ccc1O)C(=O)c1ccc(Cc2cc3c(cc2C)C(C)(C)CCC3(C)C)o1 |
| -11 | -17 | Cc1cc2c(cc1Cc1ccc(C(=O)N3CCN(c4ccc(Cl)cc4)CC3)o1)C(C)(C)CCC2(C)C |
| -1 | -7 | Cc1cc2c(cc1Cc1ccc(C(=O)N3CCN(c4ccccc4Cl)CC3)o1)C(C)(C)CCC2(C)C |
| 2 | 21 | CCN(CCNC(=O)c1ccc(Cc2cc3c(cc2C)C(C)(C)CCC3(C)C)o1)c1cccc(C)c1 |
| 10 | 9 | Cc1cc2c(cc1Cc1ccc(C(=O)N(C)CCc3ccccc3)o1)C(C)(C)CCC2(C)C |
| 7 | 9 | Cc1cc2c(cc1Cc1ccc(C(=O)N(Cc3ccccc3F)C3CCN(Cc4ccccc4)C3)o1)C(C)(C)CCC2(C)C (stereo not shown) |
| 11 | 15 | Cc1cc2c(cc1Cc1ccc(C(=O)NC3Cc4ccccc4C3)o1)C(C)(C)CCC2(C)C |
| -22 | -4 | Cc1cc2c(cc1Cc1ccc(C(=O)N(CCC3CCCN3C)Cc3ccc(Cl)cc3)o1)C(C)(C)CCC2(C)C (stereo not shown) |
| -5 | 6 | Cc1cc2c(cc1Cc1ccc(C(=O)N(CCCO)Cc3ccccc3[N+](=O)[O-])o1)C(C)(C)CCC2(C)C |
| -5 | 8 | Cc1cc2c(cc1Cc1ccc(C(=O)NCCc3ccc(Cl)c(Cl)c3)o1)C(C)(C)CCC2(C)C |
| 29 | 32 | CCc1ccc(CCNC(=O)c2ccc(Cc3cc4c(cc3C)C(C)(C)CCC4(C)C)o2)cc1 |
| 28 | 35 | Cc1cc2c(cc1Cc1ccc(C(=O)NC(C)c3ccc(F)cc3)o1)C(C)(C)CCC2(C)C (stereo not shown) |
| 20 | 28 | Cc1cc2c(cc1Cc1ccc(C(=O)NC(C)c3ccc(Cl)cc3)o1)C(C)(C)CCC2(C)C (stereo not shown) |
| 13 | 7 | COc1ccc(CCN(C)C(=O)c2ccc(Cc3cc4c(cc3C)C(C)(C)CCC4(C)C)o2)cc1OC |
| 14 | 20 | Cc1cc2c(cc1Cc1ccc(C(=O)NCCSCc3c(Cl)cccc3Cl)o1)C(C)(C)CCC2(C)C |
| 14 | 21 | Cc1cc2c(cc1Cc1ccc(C(=O)N(C)Cc3ccccc3Cl)o1)C(C)(C)CCC2(C)C |
| -12 | 1 | Cc1cc2c(cc1Cc1ccc(C(=O)N3CCN(c4ccc(C(F)(F)F)cc4)CC3)o1)C(C)(C)CCC2(C)C |
